US9296741B2, “Bromodomain inhibitors” (priority 2012, dated 2016)

Assays:
[1] = Mouse liver microsome stability assay; assay type: in vitro ADME; settings: male, CD1, mouse, microsomes, pH 7.4
[2] = test system: breast cancer cell line MX-1; test: MX-1 cell line proliferation assay; assay type: cell-based, human; settings: Homo sapiens, MX1, 72 h; MX-1 cells, 3-day proliferation, Cell Titer Glo; read-out: Cellular proliferation: EC50
[3] = molecular target: human BRD4 second bromodomain (BDII_E352-M457) (Homo sapiens (Human), UniProt O60885); test: TR-FRET bromodomain binding assay, BRD4 second bromodomain
[4] = Rat liver microsome stability assay; assay type: in vitro ADME; settings: rat liver microsomes (male Sprague-Dawley), 0.5 μM test compound, 0.25 mg/mL microsomal protein, pH 7.4, 37° C.; read-out: Stability in rat liver microsomes (t1/2 in minutes)
[5] = molecular target: human BRD4 first bromodomain (BDI_K57-E168) (Homo sapiens (Human), UniProt O60885); test: TR-FRET bromodomain binding assay, BRD4 first bromodomain
[6] = Human liver microsome stability assay; assay type: in vitro ADME; settings: both sexes, human, microsomes, pH 7.4

Row | SMILES | half-life at 0.5 μM [1] [min] | EC50 [2] [nM] | Ki [3] [nM] | half-life at 0.5 μM [4] [min] | Ki [5] [nM] | half-life at 0.5 μM [6] [min]
1 | CCOC(=O)N1CCC(Oc2ccc(S(C)(=O)=O)cc2-c2cn(C)c(=O)c3[nH]ccc23)CC1 [Example 258, ethyl 4-[2-(6-methyl-7-oxo-6,7-dihydro-1H-pyrrolo[2,3-c]pyridin-4-yl)-4-(methylsulfonyl)phenoxy]piperidine-1-carboxylate] | 69.8 | 76.5 | 12.4 | 91 | 5.9 | 42
2 | CC(C)S(=O)(=O)c1ccc(NCC2CC2)c(-c2cn(C)c(=O)c3[nH]ccc23)c1 [Example 261, 4-{2-[(cyclopropylmethyl)amino]-5-(propan-2-ylsulfonyl)phenyl}-6-methyl-1,6-dihydro-7H-pyrrolo[2,3-c]pyridin-7-one] | 16 | 7.2 | 1.6 | 5 | 1.5 | 25
3 | CC(C)S(=O)(=O)c1ccc(Oc2ccc(F)cc2F)c(-c2cn(C)c(=O)c3[nH]ccc23)c1 [Example 271, 4-[2-(2,4-difluorophenoxy)-5-(propan-2-ylsulfonyl)phenyl]-6-methyl-1,6-dihydro-7H-pyrrolo[2,3-c]pyridin-7-one] | 11 | 21.3 | 1.9 | 12 | 2.9 | 23
4 | CN1CCN(Cc2cc3c(-c4cc(S(C)(=O)=O)ccc4Oc4ccc(F)cc4F)cn(C)c(=O)c3[nH]2)CC1 [Example 281, 4-[2-(2,4-difluorophenoxy)-5-(methylsulfonyl)phenyl]-6-methyl-2-[(4-methylpiperazin-1-yl)methyl]-1,6-dihydro-7H-pyrrolo[2,3-c]pyridin-7-one] | 116 | 191 | 108 | 119 | 1.8 | 25
5 | Cn1cc(-c2cc(S(=O)(=O)c3ccccc3)ccc2OCC2CC2)c2cc[nH]c2c1=O [Example 285, 4-[2-(cyclopropylmethoxy)-5-(phenylsulfonyl)phenyl]-6-methyl-1,6-dihydro-7H-pyrrolo[2,3-c]pyridin-7-one] | 12 | 111 | 7.5 | 10 | 10.8 | 19
6 | Cn1cc(-c2cc(S(=O)(=O)N3CCOCC3)ccc2Oc2ccc(F)cc2F)c2cc[nH]c2c1=O [Example 293, 4-[2-(2,4-difluorophenoxy)-5-(morpholin-4-ylsulfonyl)phenyl]-6-methyl-1,6-dihydro-7H-pyrrolo[2,3-c]pyridin-7-one] | 3 | 381 | 19.3 | 9 | 180 | 4
7 | Cn1cc(-c2cc(NS(=O)(=O)CCN3CCOCC3)ccc2Oc2ccc(F)cc2F)c2cc[nH]c2c1=O [Example 295, N-[4-(2,4-difluorophenoxy)-3-(6-methyl-7-oxo-6,7-dihydro-1H-pyrrolo[2,3-c]pyridin-4-yl)phenyl]-2-(morpholin-4-yl)ethanesulfonamide] | 3 | 223 | 30.7 | 15 | 27.9 | 7
8 | CCS(=O)(=O)N(CCN(C)C)c1ccc(Oc2ccc(F)cc2F)c(-c2cn(C)c(=O)c3[nH]ccc23)c1 [Example 296, N-[4-(2,4-difluorophenoxy)-3-(6-methyl-7-oxo-6,7-dihydro-1H-pyrrolo[2,3-c]pyridin-4-yl)phenyl]-N-[2-(dimethylamino)ethyl]ethanesulfonamide] | 6 | 535 | 101 | 13 | 705 | 7
9 | CN(C)CCS(=O)(=O)Nc1ccc(Oc2ccc(F)cc2F)c(-c2cn(C)c(=O)c3[nH]ccc23)c1 [Example 300, N-[4-(2,4-difluorophenoxy)-3-(6-methyl-7-oxo-6,7-dihydro-1H-pyrrolo[2,3-c]pyridin-4-yl)phenyl]-2-(dimethylamino)ethanesulfonamide] | 17 | 176 | 190 | 21 | 389 | 30
10 | CCOC(=O)N1CCC(Oc2ccc(S(=O)(=O)CC)cc2-c2cn(C)c(=O)c3[nH]ccc23)CC1 [Example 301, ethyl 4-[4-(ethylsulfonyl)-2-(6-methyl-7-oxo-6,7-dihydro-1H-pyrrolo[2,3-c]pyridin-4-yl)phenoxy]piperidine-1-carboxylate] | 13 | 42.1 | 15.5 | 82 | 17.9 | 20

More lines, now with the values ahead:

Row | half-life at 0.5 μM [1] [min] | EC50 [2] [nM] | Ki [3] [nM] | half-life at 0.5 μM [4] [min] | Ki [5] [nM] | half-life at 0.5 μM [6] [min] | SMILES
11 | > 120 | 265 | 154 | > 120 | 10.5 | 70 | Cn1cc(-c2cc(S(C)(=O)=O)ccc2Oc2ccc(F)cc2F)c2cc(C(=O)N3CCOCC3)[nH]c2c1=O [Example 255, 4-[2-(2,4-difluorophenoxy)-5-(methylsulfonyl)phenyl]-6-methyl-2-(morpholin-4-ylcarbonyl)-1,6-dihydro-7H-pyrrolo[2,3-c]pyridin-7-one]
12 | 71 | 405 | 84 | 58 | 6.1 | 58 | CN1CCN(C(=O)c2cc3c(-c4cc(S(C)(=O)=O)ccc4Oc4ccc(F)cc4F)cn(C)c(=O)c3[nH]2)CC1 [Example 256, 4-[2-(2,4-difluorophenoxy)-5-(methylsulfonyl)phenyl]-6-methyl-2-[(4-methylpiperazin-1-yl)carbonyl]-1,6-dihydro-7H-pyrrolo[2,3-c]pyridin-7-one]
13 | 20.3 | 360 | 3 | 56 | 58.8 | 18 | Cn1cc(-c2cc(S(C)(=O)=O)ccc2Oc2ccc(F)cc2F)c2cc(C(=O)Nc3nccs3)[nH]c2c1=O [Example 257, 4-[2-(2,4-difluorophenoxy)-5-(methylsulfonyl)phenyl]-6-methyl-7-oxo-N-(1,3-thiazol-2-yl)-6,7-dihydro-1H-pyrrolo[2,3-c]pyridine-2-carboxamide]
14 | 58 | 329 | 56.9 | 83 | 12.4 | 79 | CN(C)C(=O)c1cc2c(-c3cc(S(C)(=O)=O)ccc3Oc3ccc(F)cc3F)cn(C)c(=O)c2[nH]1 [Example 269, 4-[2-(2,4-difluorophenoxy)-5-(methylsulfonyl)phenyl]-N,N,6-trimethyl-7-oxo-6,7-dihydro-1 H-pyrrolo[2,3-c]pyridine-2-carboxamide]
15 | 36 | 292 | 92 | 84 | 19.2 | 17 | Cn1cc(-c2cc(S(C)(=O)=O)ccc2Oc2ccc(F)cc2F)c2cc(CN3CCOCC3)[nH]c2c1=O [Example 280, 4-[2-(2,4-difluorophenoxy)-5-(methylsulfonyl)phenyl]-6-methyl-2-(morpholin-4-ylmethyl)-1,6-dihydro-7H-pyrrolo[2,3-c]pyridin-7-one]
16 | 7 | 204 | 72.3 | 21 | 17.3 | 9 | Cn1cc(-c2cc(S(C)(=O)=O)ccc2Oc2ccc(F)cc2F)c2cc(CNc3ccccc3)[nH]c2c1=O [Example 282, 4-[2-(2,4-difluorophenoxy)-5-(methylsulfonyl)phenyl]-6-methyl-2-[(phenylamino)methyl]-1,6-dihydro-7H-pyrrolo[2,3-c]pyridin-7-one]
17 | 12 | 138 | 34.6 | 22 | 18.9 | 7 | Cn1cc(-c2cc(S(C)(=O)=O)ccc2Oc2ccc(F)cc2F)c2cc(CNc3nccs3)[nH]c2c1=O [Example 283, 4-[2-(2,4-difluorophenoxy)-5-(methylsulfonyl)phenyl]-6-methyl-2-[(1,3-thiazol-2-ylamino)methyl]-1,6-dihydro-7H-pyrrolo[2,3-c]pyridin-7-one]
18 | > 120 | 131 | 130 | 108 | 18.3 | 12 | Cn1cc(-c2cc(S(C)(=O)=O)ccc2Oc2ccc(F)cc2F)c2cc(CNC3CCOC3)[nH]c2c1=O (stereo not drawn) [Example 284, 4-[2-(2,4-difluorophenoxy)-5-(methylsulfonyl)phenyl]-6-methyl-2-[(tetrahydrofuran-3-ylamino)methyl]-1,6-dihydro-7H-pyrrolo[2,3-c]pyridin-7-one]
19 | 12 | 366 | 55.8 | 22 | 53.2 | 8 | Cn1cc(-c2cc(S(C)(=O)=O)ccc2Oc2ccc(F)cc2F)c2cc(COc3ccccc3)[nH]c2c1=O [Example 292, 4-[2-(2,4-difluorophenoxy)-5-(methylsulfonyl)phenyl]-6-methyl-2-(phenoxymethyl)-1,6-dihydro-7H-pyrrolo[2,3-c]pyridin-7-one]
20 | 3 | 6.1 | 3.1 | 47 | 2.9 | 9 | CCS(=O)(=O)C(C)(C)c1ccc(Oc2ccc(F)cc2F)c(-c2cn(C)c(=O)c3[nH]ccc23)c1 [Example 298, 4-{2-(2,4-difluorophenoxy)-5-[2-(ethylsulfonyl)propan-2-yl]phenyl}-6-methyl-1,6-dihydro-7H-pyrrolo[2,3-c]pyridin-7-one]
